We go through 17 molecules from US11530222B2, “Substituted pyrrolopyrimidine and pyrazolopyrimidine as Bruton's tyrosine kinase (BTK) degraders” (ACCUTAR BIOTECHNOLOGY INC., priority 2021, dated 2022).

One experiment addresses T1, BTK (Homo sapiens, UniProt Q06187).
T1 construct: BTK Degradative Activity of Exemplary Compounds of the Present Disclosure in a RAMOS Cell Line; host or cells: RAMOS
Kind of experiment: BTK degradative activity in a RAMOS cell line (Western blot). The experiment is classed as cell-based. As to conditions: 6 hours after administration, read-out: RAMOS BTK Degradation DC50. The essentials:
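Ramos cells in RPMI with 10% FBS were treated with compound in DMSO at various concentrations for 6 h at 37 °C. BTK was measured by Western blot against GAPDH with infrared fluorescent detection and band quantification. DC50 is the concentration at which 50% of BTK is degraded.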
A general note: A western blot detects proteins with antibodies after separation by electrophoresis.

The subject of another experiment is REC-1 cells. Kind of experiment: Growth inhibitory activity in BTK-dependent REC-1 cell line (CellTiter-Glo). The experiment is classed as cell-based. As to conditions: Homo sapiens, Rec1, 144 h, 6 days after administration, read-out: REC1 Cellular Grwoth Inhibition IC50. The method, then: REC-1 (ATCC) and REC-1 BTK^C481S cells were plated in 96-well plates at 8,000 cells/well in 90 ul of RPMI growth medium containing 10% heat-inactivated FBS and 1× Penicillin Streptomycin, and then incubated at 37° C. overnight. The following day, the test compound was administered to the cells by using 10× compound stock solution prepared in growth medium at various concentrations. After administration of the compound, cells were then incubated at 37° C. for 6 days. Before CellTiter-Glo assay, the plates were equilibrated at room temperature for approximately 10 minutes. 100 ul of CellTiter-Glo® Reagent (Promega) was added to each well. The plates were then incubated at room temperature for 10 minutes and luminescence was recorded by EnSpire plate reader (PerkinElmer).
The GI50 values (i.e., the concentration of test compound at which 50% of cell growth are inhibited) were calculated. A designation of “A” corresponds to a […] value less than 20 nM. A designation of “B” corresponds to a […] value greater than or equal to 20 nM and less than 200 nM. A designation of “C” corresponds to a […] value greater than or equal to 200 nM.
Background: Cellular ATP, detected with luciferase, serves as a proxy for viable cell number.

T1 sequence (Q06187 whole entry): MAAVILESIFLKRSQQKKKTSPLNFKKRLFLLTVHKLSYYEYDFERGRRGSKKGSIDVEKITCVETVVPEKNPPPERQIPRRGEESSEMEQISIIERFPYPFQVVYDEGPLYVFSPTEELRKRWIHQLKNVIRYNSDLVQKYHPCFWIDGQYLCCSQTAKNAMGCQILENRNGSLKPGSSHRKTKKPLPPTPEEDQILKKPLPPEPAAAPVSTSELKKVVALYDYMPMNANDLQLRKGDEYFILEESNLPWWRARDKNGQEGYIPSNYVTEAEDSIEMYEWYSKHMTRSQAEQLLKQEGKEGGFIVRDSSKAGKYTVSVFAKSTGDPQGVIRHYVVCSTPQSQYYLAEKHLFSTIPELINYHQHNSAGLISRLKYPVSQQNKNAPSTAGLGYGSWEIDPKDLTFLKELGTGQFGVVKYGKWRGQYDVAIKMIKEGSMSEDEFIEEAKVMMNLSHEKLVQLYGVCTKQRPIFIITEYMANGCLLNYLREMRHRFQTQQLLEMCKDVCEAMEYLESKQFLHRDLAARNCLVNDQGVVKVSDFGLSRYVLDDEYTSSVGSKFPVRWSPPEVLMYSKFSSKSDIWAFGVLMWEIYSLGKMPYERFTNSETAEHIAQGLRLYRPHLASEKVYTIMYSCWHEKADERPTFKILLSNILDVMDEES

Take `COc1ccc(F)cc1C(=O)NCc1ccc(-c2nn(C3CCN(C(=O)CCCCN4CCN(c5ccc6c(c5)CN([C@H]5CCC(=O)NC5=O)C6=O)CC4)C3)c3ncnc(N)c23)cc1` (stereo partly drawn) [Compound 55, N-(4-(4-amino-1-(1-(5-(4-(2-((S)-2,6-dioxopiperidin-3-yl)-1-oxoisoindolin-5-yl)piperazin-1-yl)pentanoyl)pyrrolidin-3-yl)-1H-pyrazolo[3,4-d]pyrimidin-3-yl)benzyl)-5-fluoro-2-methoxybenzamide]: the DC50 on BTK fell in the range of 10 to 100 nM. The IC50 in the experiment on REC-1 cells is ≥ 200 nM.
As for `COc1ccc(F)cc1C(=O)NCc1ccc(-c2nn(C3CCN(c4ccc(CN5CCN(c6ccc7c(c6)CN([C@H]6CCC(=O)NC6=O)C7=O)CC5)nc4)C3)c3ncnc(N)c23)cc1` (stereo partly drawn) [Compound 58, N-(4-(4-amino-1-(1-(6-((4-(2-((S)-2,6-dioxopiperidin-3-yl)-1-oxoisoindolin-5-yl)piperazin-1-yl)methyl)pyridin-3-yl)pyrrolidin-3-yl)-1H-pyrazolo[3,4-d]pyrimidin-3-yl)benzyl)-5-fluoro-2-methoxybenzamide], the DC50 on BTK was ≥ 100 nM. In the experiment with REC-1 cells, the IC50 was ≥ 200 nM.
On the same counts, the results for `COc1ccc(F)cc1C(=O)NCc1ccc(-c2nn(C3CCN(C(=O)c4ccc(CN5CCN(c6ccc7c(c6)CN([C@H]6CCC(=O)NC6=O)C7=O)CC5)cc4)C3)c3ncnc(N)c23)cc1` (stereo partly shown) [Compound 63] are < 10 nM and 20 to 200 nM.
Consider `COc1ccc(F)cc1C(=O)NCc1ccc(-c2nn(C3CCN(c4ccc(CN5CCN(c6ccc7c(c6)CN([C@H]6CCC(=O)NC6=O)C7=O)CC5)cn4)CC3)c3ncnc(N)c23)cc1` [Compound 52, (S)—N-(4-(4-amino-1-(1-(5-((4-(2-(2,6-dioxopiperidin-3-yl)-1-oxoisoindolin-5-yl)piperazin-1-yl)methyl)pyridin-2-yl)piperidin-4-yl)-1H-pyrazolo[3,4-d]pyrimidin-3-yl)benzyl)-5-fluoro-2-methoxybenzamide], for which the DC50 at BTK is < 10 nM. In addition, in the experiment on REC-1 cells, the IC50 is < 20 nM.
As for `COc1ccc(F)cc1C(=O)NCc1ccc(-c2nn(C3CN(c4ccc(CN5CCN(c6ccc7c(c6)CN([C@H]6CCC(=O)NC6=O)C7=O)CC5)cc4)C3)c3ncnc(N)c23)cc1` [Compound 61, (S)—N-(4-(4-amino-1-(1-(4-((4-(2-(2,6-dioxopiperidin-3-yl)-1-oxoisoindolin-5-yl)piperazin-1-yl)methyl)phenyl)azetidin-3-yl)-1H-pyrazolo[3,4-d]pyrimidin-3-yl)benzyl)-5-fluoro-2-methoxybenzamide], the DC50 at BTK is < 10 nM. In addition, the IC50 in the experiment on REC-1 cells is < 20 nM.
On the same counts, the results for `COc1ccc(F)cc1C(=O)NCc1ccc(-c2nn(C3CCN(c4ccc(CN5CCN(c6ccc7c(c6)CN([C@H]6CCC(=O)NC6=O)C7=O)CC5)cc4)CC3)c3ncnc(N)c23)cc1` [Compound 53, (S)—N-(4-(4-amino-1-(1-(4-((4-(2-(2,6-dioxopiperidin-3-yl)-1-oxoisoindolin-5-yl)piperazin-1-yl)methyl)phenyl)piperidin-4-yl)-1H-pyrazolo[3,4-d]pyrimidin-3-yl)benzyl)-5-fluoro-2-methoxybenzamide] are < 10 nM and < 20 nM.
`COc1ccc(F)cc1C(=O)NCc1ccc(-c2nn(C3CCN(C(=O)CCCCCN4CCN(c5ccc6c(c5)CN([C@H]5CCC(=O)NC5=O)C6=O)CC4)C3)c3ncnc(N)c23)cc1` (stereo partly drawn) [Compound 64, N-(4-(4-amino-1-(1-(6-(4-(2-((S)-2,6-dioxopiperidin-3-yl)-1-oxoisoindolin-5-yl)piperazin-1-yl)hexanoyl)pyrrolidin-3-yl)-1H-pyrazolo[3,4-d]pyrimidin-3-yl)benzyl)-5-fluoro-2-methoxybenzamide]: the DC50 at BTK was < 10 nM. Also, the IC50 in the experiment on REC-1 cells fell in the range of 20 to 200 nM.
In the case of `COc1ccc(F)cc1C(=O)NCc1ccc(-c2nn(C3CCN(c4ccc(CN5CCN(c6ccc7c(c6)CN([C@H]6CCC(=O)NC6=O)C7=O)CC5)cc4)C3)c3ncnc(N)c23)cc1` (stereo partly drawn) [Compound 60, N-(4-(4-amino-1-(1-(4-((4-(2-((S)-2,6-dioxopiperidin-3-yl)-1-oxoisoindolin-5-yl)piperazin-1-yl)methyl)phenyl)pyrrolidin-3-yl)-1H-pyrazolo[3,4-d]pyrimidin-3-yl)benzyl)-5-fluoro-2-methoxybenzamide], on BTK, the DC50 was ≥ 100 nM. For the same molecule, the IC50 with REC-1 cells was in the range of 20 to 200 nM.
For `COc1ccc(F)cc1C(=O)NCc1ccc(-c2nn(C3CN(C(=O)c4ccc(CN5CCN(c6ccc7c(c6)CN([C@H]6CCC(=O)NC6=O)C7=O)CC5)cc4)C3)c3ncnc(N)c23)cc1` [Compound 62, (S)—N-(4-(4-amino-1-(1-(4-((4-(2-(2,6-dioxopiperidin-3-yl)-1-oxoisoindolin-5-yl)piperazin-1-yl)methyl)benzoyl)azetidin-3-yl)-1H-pyrazolo[3,4-d]pyrimidin-3-yl)benzyl)-5-fluoro-2-methoxybenzamide], in that order: < 10 nM and 20 to 200 nM.
As to `COc1ccc(F)cc1C(=O)NCc1ccc(-c2nn(-c3ccc(N4CCC(CN5CCN(c6ccc7c(c6)C(=O)N(C6CCC(=O)NC6=O)C7=O)CC5)CC4)c(F)c3)c3ncnc(N)c23)cc1` (stereo not shown) [Compound 50, N-(4-(4-amino-1-(4-(4-((4-(2-(2,6-dioxopiperidin-3-yl)-1,3-dioxoisoindolin-5-yl)piperazin-1-yl)methyl)piperidin-1-yl)-3-fluorophenyl)-1H-pyrazolo[3,4-d]pyrimidin-3-yl)benzyl)-5-fluoro-2-methoxybenzamide], the DC50 at BTK was in the range of 10 to 100 nM. In addition, the IC50 with REC-1 cells is < 20 nM.
On the same counts, the results for `COc1ccc(F)cc1C(=O)NCc1ccc(-c2nn(C3CCN(c4ccc(CN5CCN(c6ccc7c(c6)CN([C@H]6CCC(=O)NC6=O)C7=O)CC5)cn4)C3)c3ncnc(N)c23)cc1` (stereo partly drawn) [Compound 92, N-(4-(4-amino-1-(1-(5-((4-(2-((S)-2,6-dioxopiperidin-3-yl)-1-oxoisoindolin-5-yl)piperazin-1-yl)methyl)pyridin-2-yl)pyrrolidin-3-yl)-1H-pyrazolo[3,4-d]pyrimidin-3-yl)benzyl)-5-fluoro-2-methoxybenzamide] are < 10 nM and 20 to 200 nM.
`O=C1CC[C@H](N2Cc3cc(N4CCN(CCCCC(=O)N5CCC[C@@H](Nc6ncnc7[nH]cc(C(=O)c8ccc(Oc9ccccc9)cc8Cl)c67)C5)CC4)ccc3C2=O)C(=O)N1` [Compound 14, (S)-3-(5-(4-(5-((R)-3-((5-(2-chloro-4-phenoxybenzoyl)-7H-pyrrolo[2,3-d]pyrimidin-4-yl)amino)piperidin-1-yl)-5-oxopentyl)piperazin-1-yl)-1-oxoisoindolin-2-yl)piperidine-2,6-dione]: at BTK, the 50% degradation concentration (DC50) lay within 10 to 100 nM.
The same measure, in the same setting: the figure for `O=C1CC[C@H](N2Cc3cc(N4CCN(CCCC(=O)N5CCC(Nc6ncnc7[nH]cc(C(=O)c8ccc(Oc9ccccc9)cc8Cl)c67)CC5)CC4)ccc3C2=O)C(=O)N1` [Compound 24, (S)-3-(5-(4-(4-(4-((5-(2-chloro-4-phenoxybenzoyl)-7H-pyrrolo[2,3-d]pyrimidin-4-yl)amino)piperidin-1-yl)-4-oxobutyl)piperazin-1-yl)-1-oxoisoindolin-2-yl)piperidine-2,6-dione] is 10 to 100 nM; for `O=C1CCC(N2C(=O)c3ccc(N4CCN(CCCCCCCN5CCC(Nc6ncnc7[nH]cc(C(=O)c8ccc(Oc9ccccc9)cc8Cl)c67)CC5)CC4)cc3C2=O)C(=O)N1` (stereo not shown) [Compound 12, 5-(4-(7-(4-((5-(2-chloro-4-phenoxybenzoyl)-7H-pyrrolo[2,3-d]pyrimidin-4-yl)amino)piperidin-1-yl)heptyl)piperazin-1-yl)-2-(2,6-dioxopiperidin-3-yl)isoindoline-1,3-dione] it is 10 to 100 nM; for `O=C1CCC(N2C(=O)c3cccc(C#CCCCCCC(=O)N4CCC(Nc5ncnc6[nH]cc(C(=O)c7ccc(Oc8ccccc8)cc7Cl)c56)CC4)c3C2=O)C(=O)N1` (stereo not shown) [Compound 38, 4-(8-(4-((5-(2-chloro-4-phenoxybenzoyl)-7H-pyrrolo[2,3-d]pyrimidin-4-yl)amino)piperidin-1-yl)-8-oxooct-1-yn-1-yl)-2-(2,6-dioxopiperidin-3-yl)isoindoline-1,3-dione] it is ≥ 100 nM.
Same read-out and setting: the figure for `COc1ccc(C(=O)N2CCN(CCCCCC(=O)N3CCC(Nc4ncnc5[nH]cc(C(=O)c6ccc(Oc7ccccc7)cc6Cl)c45)CC3)CC2)cc1N1CCC(=O)NC1=O` [Compound 71, 1-(5-(4-(6-(4-((5-(2-chloro-4-phenoxybenzoyl)-7H-pyrrolo[2,3-d]pyrimidin-4-yl)amino)piperidin-1-yl)-6-oxohexyl)piperazine-1-carbonyl)-2-methoxyphenyl) dihydropyrimidine-2,4(1H,3H)-dione] is 10 to 100 nM.
Turning to `O=C1CCC(N2C(=O)c3cccc(C#CCCCCC(=O)N4CCC(Nc5ncnc6[nH]cc(C(=O)c7ccc(Oc8ccccc8)cc7Cl)c56)CC4)c3C2=O)C(=O)N1` (stereo not shown) [Compound 36, 4-(7-(4-((5-(2-chloro-4-phenoxybenzoyl)-7H-pyrrolo[2,3-d]pyrimidin-4-yl)amino)piperidin-1-yl)-7-oxohept-1-yn-1-yl)-2-(2,6-dioxopiperidin-3-yl)isoindoline-1,3-dione], on BTK, the half-maximal degradation concentration (DC50) was ≥ 100 nM.

In general, DC50 refers to the midpoint of the concentration-degradation curve. Usually IC50 stands for the concentration at which inhibition is half-maximal.
